Experimental data published in patent publication US20190105367A1, “ANTIMICROBIAL 4-OXOQUINOLIZINES” (Emergent Product Development Gaithersburg Inc., priority 2011, published 2019).
In brackets after ≈: the same amount, converted by molar mass. Where two headings read alike, the source gives them in different places.

Experiments:
A. baumannii A14 [1] = assay: MIC without and with sub-inhibitory polymyxin B (Example 4); type: cell-based, Acinetobacter baumannii; conditions: 1st experiment
A. baumannii A329 [2] = assay: as above; type: cell-based, Acinetobacter baumannii; conditions: A. baumannii A329; +0.06 μg/ml PB; 2nd experiment
A. baumannii A390 [3] = assay: as above; type: cell-based, Acinetobacter baumannii; conditions: +0.06 μg/ml PB, 2nd experiment
A. baumannii A472 [4] = assay: as above; type: cell-based, Acinetobacter baumannii; conditions: for MIC: Acinetobacter baumannii
A. baumannii A387 [5] = assay: as above; type: cell-based, Acinetobacter baumannii; conditions: A. baumannii A387
A. baumannii A401 [6] = assay: as above; type: cell-based, Acinetobacter baumannii; conditions: A baumannii A 401; ratio, PB 0.06 μg/ml; 1st experiment
A. baumannii J2 = assay: as above; type: cell-based, Acinetobacter baumannii; conditions: for MIC without PB/MIC + PB: A. baumannii J2; for MIC: Acinetobacter baumannii
A. baumannii A401 [7] = assay: Preliminary MBC without and with sub-inhibitory polymyxin B (Example 4); type: cell-based, Acinetobacter baumannii; conditions: Acinetobacter baumannii
A. baumannii A329 [8] = assay: as above; type: cell-based, Acinetobacter baumannii; conditions: A. baumannii A329, +0.06 μg/ml PB, 2nd experiment
A. baumannii A473 [9] = assay: MIC without and with sub-inhibitory polymyxin B (Example 4); type: cell-based, Acinetobacter baumannii; conditions: A. baumannii A473; +0.06 μg/ml PB; 2nd experiment
[10] = system: Acinetobacter sp. (H064200250); assay: as above; type: cell-based
[11] = system: strains of A. baumannii and one strain of Acinetobacter sp.; assay: MIC with sub-inhibitory concentrations (0.25x MIC) of polymyxin B, panel of Acinetobacter strains (Example 4); type: cell-based
A. baumannii A14 [12] = assay: Preliminary MBC without and with sub-inhibitory polymyxin B (Example 4); type: cell-based, Acinetobacter baumannii; conditions: A. baumannii A14; +0.06 μg/ml polymyxin B; preliminary MBC; 1st experiment
A. baumannii A472 [13] = assay: as above; type: cell-based, Acinetobacter baumannii; conditions: Acinetobacter baumannii, preliminary MBC
A. baumannii A473 [14] = assay: as above; type: cell-based, Acinetobacter baumannii; conditions: A. baumannii A473, +0.06 μg/ml PB, 2nd experiment
Procedure, shortened: (§1)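 Incubation 18-20 h, 37° C. MBC = lowest conc. with ~90% fewer colonies than positive control (single/no colonies).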

A. baumannii A14 [15] = assay: as above; type: cell-based, Acinetobacter baumannii; conditions: A. baumannii A14, +0.06 μg/ml PB, 2nd experiment
Procedure, shortened: as §1

A. baumannii A390 [16] = assay: as above; type: cell-based, Acinetobacter baumannii; conditions: Acinetobacter baumannii, A390, A. baumannii A390, +0.06 μg/ml PB, 2nd experiment
Procedure, shortened: as §1

A. baumannii NCTC 13301 [17] = assay: as above; type: cell-based, Acinetobacter baumannii; conditions: Acinetobacter baumannii
Procedure, shortened: as §1

A. baumannii A14 [18] = assay: MIC without and with sub-inhibitory polymyxin B (Example 4); type: cell-based, Acinetobacter baumannii; conditions: A. baumannii A14; +0.06 μg/ml PB; 2nd experiment
A. baumannii NCTC 13301 [19] = assay: as above; type: cell-based, Acinetobacter baumannii
A. baumannii A387 [20] = assay: Preliminary MBC without and with sub-inhibitory polymyxin B (Example 4); type: cell-based, Acinetobacter baumannii; conditions: A. baumannii A387, +0.06 μg/ml PB, 2nd experiment
A. baumannii ATCC 19606 = assay: MIC without and with sub-inhibitory polymyxin B (Example 4); type: cell-based, Acinetobacter baumannii; conditions: A. baumannii ATCC 19606
A. baumannii A489 = assay: Preliminary MBC without and with sub-inhibitory polymyxin B (Example 4); type: cell-based, Acinetobacter baumannii; conditions: Acinetobacter baumannii, preliminary MBC
A. baumannii NCTC 13301 [21] = assay: MIC without and with sub-inhibitory polymyxin B (Example 4); type: cell-based, Acinetobacter baumannii; conditions: +[…] PB, 2nd experiment
[22] = ratio, PB 0.06 μg/ml, 1st experiment

COc1c(N2C[C@@H]3CCCN[C@@H]3C2)c(F)cc2c(=O)c(C(=O)O)cn(C3CC3)c12 [Moxifloxacin]
MIC +0.06 μg/ml PB (A. baumannii A14 [1]; +0.06 μg/ml polymyxin B): 32 µg/mL
MIC without PB/MIC + PB (A. baumannii A14 [1]; ratio, PB 0.06 μg/ml): 1
MIC without PB/MIC + PB (A. baumannii A329 [2]): 1
MIC without PB/MIC + PB (A. baumannii A390 [3]; A. baumannii A390): 2
MIC (A. baumannii A390 [3]; Acinetobacter baumannii, A390, A. baumannii A390, read-out: MIC): 8 µg/mL (≈ 19.9 µM)
MIC without PB/MIC + PB (A. baumannii A472 [4]; A. baumannii A472, ratio, PB […], 1st experiment): 0.5
MIC (A. baumannii A472 [4]; A472, A. baumannii A472, +[…] PB, 2nd experiment, read-out: MIC): 4 µg/mL (≈ 9.96 µM)
MIC (A. baumannii A472 [4]; A472, read-out: MIC +[…] PB, A. baumannii A472, +[…] polymyxin B, 1st experiment): 32 µg/mL (≈ 79.7 µM)
MIC without PB/MIC + PB (A. baumannii A387 [5]; +0.06 μg/ml PB, 2nd experiment): 1
MIC without PB/MIC + PB (A. baumannii A387 [5]; [22]): 1
MIC without PB/MIC + PB (A. baumannii A401 [6]): 2
MIC without PB/MIC + PB (A. baumannii J2; +[…] PB, 2nd experiment): 4
MIC without PB/MIC + PB (A. baumannii J2; ratio, PB […], 1st experiment): 4
MIC (A. baumannii J2; J2, A. baumannii J2, +[…] PB, 2nd experiment, read-out: MIC): 8 µg/mL (≈ 19.9 µM)
MIC (A. baumannii J2; J2, read-out: MIC +[…] PB, A. baumannii J2, +[…] polymyxin B, 1st experiment): 8 µg/mL (≈ 19.9 µM)
MBC (A. baumannii A401 [7]; A401, A baumannii A 401, +0.06 μg/ml PB, 2nd experiment): 8 µg/mL (≈ 19.9 µM)
MBC (A. baumannii A401 [7]; A401, read-out: MBC +0.06 μg/ml PB, A baumannii A 401, +0.06 μg/ml polymyxin B, 1st experiment): 8 µg/mL
MBC (A. baumannii A329 [8]): 32 µg/mL (≈ 79.7 µM)
MIC without PB/MIC + PB (A. baumannii A473 [9]): 1
MIC without PB/MIC + PB ([10]; Acinetobacter spp. H064200250 (OXA51), +[…] PB, 2nd experiment): 1
MIC without PB/MIC + PB ([10]; Acinetobacter spp. H064200250, ratio, PB […], 1st experiment): 1
Range ratios MIC without PB/MIC with PB Oct. 1, 2008 n = 8 ([11]; 1st experiment): 0.5-4
MIC range with PB (0.25x MIC) Oct. 1, 2008 n = 8 ([11]; 1st experiment, […] polymyxin B, ATCC 19606, A329, A390 and A473 not taken): 4 to 128 µg/mL
Range ratios MIC without PB/MIC with PB Oct. 14, 2008 n = 11 ([11]; 2nd experiment): 1-8
MIC range with PB (0.25x MIC) Oct. 14, 2008 n = 11 ([11]; 2nd experiment, 0.06 μg/ml polymyxin B, all strains except the ATCC strain): 4 to 32 µg/mL
MBC +0.06 μg/ml PB (A. baumannii A14 [12]): 32 µg/mL
MBC (A. baumannii A472 [13]; A472, A. baumannii A472, +[…] PB, 2nd experiment): 4 µg/mL (≈ 9.96 µM)
MBC (A. baumannii A472 [13]; A472, read-out: MBC +[…] PB, A. baumannii A472, +[…] polymyxin B, 1st experiment): 4 µg/mL (≈ 9.96 µM)
MBC (A. baumannii A473 [14]): 8 µg/mL (≈ 19.9 µM)
MBC (A. baumannii A14 [15]): 16 µg/mL (≈ 39.9 µM)
MBC (A. baumannii A390 [16]): 8 µg/mL (≈ 19.9 µM)
MBC (A. baumannii NCTC 13301 [17]; NCTC13301, A. baumannii NCTC 13301, +[…] PB, preliminary MBC, 2nd experiment): 8 µg/mL (≈ 19.9 µM)
MBC (A. baumannii NCTC 13301 [17]; NCTC13301, read-out: MBC +[…] PB): 128 µg/mL (≈ 319 µM)
MIC (A. baumannii A14 [18]): 16 µg/mL (≈ 39.9 µM)
MIC without PB/MIC + PB (A. baumannii A14 [18]): 2
MIC without PB/MIC + PB (A. baumannii NCTC 13301 [19]; A. baumannii NCTC 13301, ratio, PB […], 1st experiment): 1
MIC (A. baumannii NCTC 13301 [19]; Acinetobacter baumannii, NCTC13301, read-out: MIC +[…] PB): 128 µg/mL (≈ 319 µM)
MBC (A. baumannii A387 [20]): 8 µg/mL (≈ 19.9 µM)
MIC without PB/MIC + PB (A. baumannii ATCC 19606; +0.06 μg/ml PB, 2nd experiment): 2
MIC without PB/MIC + PB (A. baumannii ATCC 19606; [22]): 1
MBC (A. baumannii A489; A489, A. baumannii A489, +[…] PB, 2nd experiment): 4 µg/mL (≈ 9.96 µM)
MBC (A. baumannii A489; A489, read-out: MBC +[…] PB, A. baumannii A489, +[…] polymyxin B, 1st experiment): 4 µg/mL (≈ 9.96 µM)
MIC without PB/MIC + PB (A. baumannii NCTC 13301 [21]; A. baumannii NCTC 13301): 8
MIC (A. baumannii NCTC 13301 [21]; Acinetobacter baumannii, NCTC13301, A. baumannii NCTC 13301, read-out: MIC): 8 µg/mL (≈ 19.9 µM)
